Assay results from article PMC8041708, “Characterization of MK6240, a tau PET tracer, in autopsy brain tissue from Alzheimer’s disease cases” (European Journal of Nuclear Medicine and Molecular Imaging, 2020).
Read-outs that look alike come from different tables or passages of the source.

Columns and labels:
[1] = target: ^3H-MK6240 binding sites in the temporal cortex (Homo sapiens, UniProt P10636); assay: Competitive binding assay with ^3H-MK6240 (0.5 nM) on AD temporal cortex homogenates; conditions: for Fraction of sites with super-high affinity for the competitor (%): radioligand ^3H-MK6240, temporal cortex; for IC50: 2-site competition model, temporal cortex
Chain of ^3H-MK6240 binding sites in the temporal cortex (P10636 623-695 limits assumed): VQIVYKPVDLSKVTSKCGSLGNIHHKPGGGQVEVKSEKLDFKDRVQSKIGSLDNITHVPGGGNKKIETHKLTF
Procedure: (§1) Frozen post-mortem tissue from eight AD and seven control brains from the Netherlands Brain Bank (NBB) was homogenized in phosphate buffer saline (PBS) with additional 0.1% bovine serum albumin (BSA; […]) and protease/phosphatase inhibitors (10 μL/mL).
Competitive binding assays with ^3H-MK6240 (0.5 nM) were carried out for 90 min at 37 °C on temporal cortex homogenates from two AD brains, in PBS + 0.1% BSA (pH 7.4), using increasing concentrations of unlabelled MK6240, unlabelled THK5117 or unlabelled AV-1451 (1.10^−14–1.10^−5 M). The binding assay was terminated as described above. The half-maximal […] concentration (IC50) was determined using GraphPad Prism software and data were analysed using a 2-site competition model.

AD tissue = conditions: ref [7], [21], cited from earlier work
[2] = tested on: ^3H-THK5351 binding sites in the hippocampus; parameters: method as in Lemoine et al. [12]; conditions: ref Lemoine et al. [12], cited from earlier work; for Fraction of sites with super-high affinity for the competitor (%): radioligand ^3H-THK5351
[3] = tested on: ^18F-AV-1451 binding sites in AD brains; parameters: method as in Ni et al. (unpublished data); conditions: versus ^18F-AV-1451, ref Ni et al. (unpublished data), cited from earlier work
[4] = tested on: ^3H-THK5351 binding sites in the hippocampus; assay: Competitive binding assay with ^3H-THK5351 (1.5 nM) on AD hippocampus homogenates; parameters: species or system human
Procedure: as §1
Competitive binding assays were also carried out with ^3H-THK5351 (1.5 nM) in PBS + 0.1% BSA (pH 7.4) on hippocampus homogenates, using increasing concentrations of unlabelled MK6240 (1.10^−14–1.10^−5 M) in PBS + 0.1% BSA for 2 h at room temperature.

[5] = tested on: ^3H-AV-1451 binding sites; parameters: method as in Hostetler et al. [21]; conditions: ref Hostetler et al. [21]; cited from earlier work
[6] = site 2, high affinity, read-out: IC50(High)
[7] = site 1, super-high affinity, read-out: IC50(supHigh)

Row | High affinity sites, fraction ([1]; ^3H-MK6240 competitions) | Fraction of sites with super-high affinity for the competitor (%) [1] | IC50 [1, 6] | Fraction of sites with super-high affinity for the competitor (%) ([4]; radioligand ^3H-THK5351, hippocampus) | Competition with ^3H-THK5351 ([4]; unlabelled MK6240 1.10^-14-1.10^-5 M, hippocampus of three AD patients) | SMILES | Kd (AD tissue; unit inferred) | Low affinity sites, fraction ([2]; ^3H-THK5351 competitions) | Fraction of sites with super-high affinity for the competitor (%) [2] | Proportion of sites with high affinity for the competitor ([3]; frontal cortex) | Proportion of sites with high affinity for the competitor ([3]; temporal cortex of AD brains) | IC50 [1, 7] | Competition with ^3H-AV-1451 [5] | Low affinity sites, fraction ([1]; ^3H-MK6240 competitions) | IC50 ([1]; site 2, low affinity, read-out: IC50(low)) | Kd (AD tissue) | High affinity sites, fraction ([2]; ^3H-THK5351 competitions)
1 | 26% | 74% | 2 nM |  |  | Fc1ccc(-c2ccc3c(c2)[nH]c2ccncc23)cn1 [AV-1451] | 0.6 to 3.7 nM | 65% | 35% | 61% | 88% |  |  |  |  |  | 
2 | 42% | 58% | 12 nM | 0% | did not compete | Nc1c(F)ccc2cnc(-n3ccc4ccncc43)cc12 [MK6240] |  |  |  |  |  | 0.001 nM | lack of competition |  |  |  | 
3 |  |  |  |  |  | CNc1ccc(-c2ccc3cc(OC[C@H](O)CF)ccc3n2)cn1 [THK5351] |  |  | 62% |  |  |  |  |  |  |  | 38%

Row | SMILES | High affinity sites, fraction ([1]; ^3H-MK6240 competitions) | Fraction of sites with super-high affinity for the competitor (%) [1] | IC50 [1, 6] | Fraction of sites with super-high affinity for the competitor (%) ([4]; radioligand ^3H-THK5351, hippocampus) | Competition with ^3H-THK5351 ([4]; unlabelled MK6240 1.10^-14-1.10^-5 M, hippocampus of three AD patients) | Kd (AD tissue; unit inferred) | Low affinity sites, fraction ([2]; ^3H-THK5351 competitions) | Fraction of sites with super-high affinity for the competitor (%) [2] | Proportion of sites with high affinity for the competitor ([3]; frontal cortex) | Proportion of sites with high affinity for the competitor ([3]; temporal cortex of AD brains) | IC50 [1, 7] | Competition with ^3H-AV-1451 [5] | Low affinity sites, fraction ([1]; ^3H-MK6240 competitions) | IC50 ([1]; site 2, low affinity, read-out: IC50(low)) | Kd (AD tissue) | High affinity sites, fraction ([2]; ^3H-THK5351 competitions)
4 | CNc1ccc(-c2ccc3cc(OCC(O)CF)ccc3n2)cc1 (stereo not drawn) [THK5117] |  | 37% |  |  |  |  |  | 46% |  |  | 0.002 nM |  | 63% | 304 nM | 2.2 nM | 54%
